Entries after “also recorded” stand apart in the source; their conditions may differ. Where a SMILES comes first, the peptide text is derived from it. The star is where a group is joined. Cbz = O=C(OCc1ccccc1)*; CH2F = FC*
Tests used:
[1] = test system: femoral and tibial articular cartilage; experiment: Intraarticular injection of caspase inhibitor in rabbits with anterior cruciate ligament transection (ACLT); assay type: in vivo, New Zealand White rabbits
Experimental: Intraarticular injection of caspase inhibitor in rabbits with ligament transection. A pilot study was performed to assess feasibility and efficacy of caspase inhibition in vivo. Eight New Zealand White rabbits were divided into anterior cruciate ligament transection (ACLT) and ACLT+caspase inhibitor (CI) groups. Both groups underwent bilateral ACLT. The ACLT+CI group was treated with intra-articular injections of 25 μg of z-VAD.fmk three times per week for six weeks while the control group received saline injections. Rabbits were euthanised at six weeks and femoral and tibial articular cartilage evaluated by India ink staining and histologic Mankin grading after Safranin-O stain.

[2] = test system: bovine cartilage explants; experiment: Glycosaminoglycan (GAG) release assay, mechanically injured bovine cartilage explants; assay type: cell-based; details: loaded bovine explants treated with caspase inhibitor
Experimental: Glycosaminoglycan release assay. To estimate GAG depletion and release, the concentration of sulfated glycosaminoglycans was measured using […] (DMMB) as a monitor of spectrophotometric changes which occur during the formation of the sulfated GAG dye complex (Farndale, et al. (1986) Biochim. Biophys. Acts. 883, 173-177, Goldberg, et al. (1993) Agents Actions 39 Spec No, C163-C165). For GAG content measurement, samples were digested in papain and collagenase and the concentration of sulfated GAG measured using DMMB. To generate a standard curve, chondroitin-6-sulfate (Sigma, St. Louis, Mo.) was used at concentrations between 1 and 200 μg/ml. GAG released in media was normalized to the pooled mean GAG content of Control (uninjured) cartilage explants and expressed as a percentage of total GAG content.
Inhibition of apoptosis. To determine whether apoptosis could be prevented by caspase inhibition, 12 explants were loaded at 23 MPa (High Load) and cultured for 48 hours. […] Percent apoptosis and GAG release in media was measured as described above.
Release of sulfated glycosaminoglycans (GAG) was analyzed as a measure of the extent of damage sustained by the explant. […] GAG depletion was assessed by dimethylene blue binding assays of the culture supernatants and this correlated with the reduced of safranin O staining of the cartilage sections.

[3] = test system: bovine cartilage explants; experiment: Load-induced chondrocyte apoptosis (TUNEL) in bovine cartilage explants; assay type: cell-based
Description: Cartilage explants. Macroscopically normal weight bearing portions of freshly slaughtered skeletally mature bovine femoral condyles were selected from animals between 2 and 6 years of age (Animal Technologies, Austin, Tex.). Only joints without visible signs of degeneration or aging were selected. Using sterile techniques, full thickness cartilage was separated from underlying subchondral bone with a scalpel and 5 mm diameter cylindrical explants, ranging from 1 to 1.8 mm in height, cored out using a dermal punch (Acuderm, Inc., Ft. Lauderdale, Fla.). Explants taken from adjacent sites were used as matched controls for each group in each experiment to minimize variation in cartilage response due to differences in thickness and location within the joint. Each explant was weighed and allowed to stabilize at 37° C. and 5% CO2 for 48 hours in 1 ml of Dulbecco's modified Eagle's medium (DMEM) supplemented with 10% fetal bovine serum (FBS), L-glutamine, antibiotics and 50 μg/ml ascorbic acid.
(§1) Loading apparatus and procedure. […] Stress and strain data were recorded during the test.
Apoptosis detection. […] TUNEL positive cells emit a bright green fluorescence while TUNEL negative cells display an orange color due to propidium iodide counterstaining. […] Cells in all areas were counted and divided into TUNEL positive or TUNEL negative. […]

human cartilage explants = experiment: Load-induced chondrocyte apoptosis (TUNEL) in human cartilage explants; assay type: cell-based; details: loaded explants (30% strain) cultured in 100 mM z-VAD.fmk after injury, 96 hours post-injury
Description: Cartilage explants. Macroscopically normal tibial and femoral articular surfaces were selected from human cadaver donors between 18 and 45 years of age. Using sterile techniques, full thickness cartilage was separated from underlying subchondral bone with a scalpel. 5 mm diameter cylindrical explants, ranging from 2 to 2.8 mm in thickness, cored out using a dermal punch (Acuderm, Inc., Ft. Lauderdale, Fla.). Explants taken from adjacent sites were used as matched controls for each group in each experiment to minimize variation in cartilage response due to differences in thickness and location within the joint. […]
as §1
Caspase inhibition. […] Percentage apoptosis was measured at 96 hours post-injury in three groups (control, loaded, and loaded with z-VAD.fmk) with ten explants each in two separate experiments.
Apoptosis detection. […] This was detected by immunohistochemical staining with M30 (Cytodeath, Boehringer Mannheim, Eugene, Oreg.), a monoclonal antibody that recognizes the neo-epitope exposed in early apoptosis.
Chondrocyte apoptosis after mechanical injury to human cartilage. […] GAG release and percentage of cells undergoing apoptosis were measured at 96 hours after injury. […]

COC(=O)CC(NC(=O)C(C)NC(=O)C(NC(=O)OCc1ccccc1)C(C)C)C(=O)CF (stereo not drawn) [z-VAD.fmk, benzyloxycarbonyl-Val-Ala-Asp (OMe) fluoromethylketone] (Cbz-Val-Ala-Asp(OMe)-CH2F; configuration not given here)
reduction of the size of the cartilage lesions (surface area, India ink stained femoral condyles) ([1]; 25 μg intra-articular three times per week for six weeks, bilateral ACLT): ~80%
cartilage lesions under India ink examination (in words) ([1]; ACLT+CI group, six weeks): lesions that were smaller in area
knees with Mankin grade 5 or higher ([1]; ACLT+CI group, six weeks, 4/8 knees): 50%
GAG release / GAG depletion (in words) [2]: reduction in GAG release; also recorded: normalization of the GAG depletion
reduction in the apoptosis rate ([3]; high and intermediate load groups): > 50%
chondrocyte apoptosis after mechanical injury (in words) ([3]; loaded bovine explants, z-VAD.fmk 100 μM, 48 hours): reduced chondrocyte apoptosis
reduction in apoptotic rates (human cartilage explants): 50%

Reference: US20090186827A1, “Process of inhibiting cell death in injured cartilage” (The Scripps Research Institute, priority 2001, published 2009)
